Target: T1, mouse TLR7 (Mus musculus, UniProt P58681)
T1 sequence (P58681 27-1050): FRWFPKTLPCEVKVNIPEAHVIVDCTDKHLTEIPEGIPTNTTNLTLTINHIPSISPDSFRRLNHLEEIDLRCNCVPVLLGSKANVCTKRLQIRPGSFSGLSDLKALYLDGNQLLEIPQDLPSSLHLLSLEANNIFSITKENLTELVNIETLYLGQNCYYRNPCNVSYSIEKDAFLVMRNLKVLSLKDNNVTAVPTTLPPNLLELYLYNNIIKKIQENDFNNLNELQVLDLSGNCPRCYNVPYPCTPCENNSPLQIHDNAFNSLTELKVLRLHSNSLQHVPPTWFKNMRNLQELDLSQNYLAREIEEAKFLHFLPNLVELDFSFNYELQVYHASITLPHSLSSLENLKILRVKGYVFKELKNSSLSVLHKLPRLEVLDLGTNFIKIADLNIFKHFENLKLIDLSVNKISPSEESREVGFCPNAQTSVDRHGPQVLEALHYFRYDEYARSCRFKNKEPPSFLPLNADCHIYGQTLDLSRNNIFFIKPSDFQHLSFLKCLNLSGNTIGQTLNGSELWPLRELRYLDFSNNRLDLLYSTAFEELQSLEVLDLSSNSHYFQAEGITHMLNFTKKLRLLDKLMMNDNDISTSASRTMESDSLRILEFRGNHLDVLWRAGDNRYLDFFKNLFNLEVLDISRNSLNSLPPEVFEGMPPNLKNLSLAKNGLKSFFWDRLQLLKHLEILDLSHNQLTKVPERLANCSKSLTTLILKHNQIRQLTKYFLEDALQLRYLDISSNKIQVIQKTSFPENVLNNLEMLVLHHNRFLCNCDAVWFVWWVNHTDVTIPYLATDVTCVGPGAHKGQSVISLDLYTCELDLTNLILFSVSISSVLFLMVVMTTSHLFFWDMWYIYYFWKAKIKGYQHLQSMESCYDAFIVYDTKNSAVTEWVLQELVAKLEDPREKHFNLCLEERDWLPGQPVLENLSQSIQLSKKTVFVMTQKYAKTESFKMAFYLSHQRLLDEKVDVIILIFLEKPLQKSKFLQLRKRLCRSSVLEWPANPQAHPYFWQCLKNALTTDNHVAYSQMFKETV
Experiment: Short-term in vivo (STIV) assay: oral dosing, R848 s.c., plasma IL-6
Design: female BALB/c mice (Jackson Labs, Bar Harbor, Me.) were dosed by oral gavage; tissue Jackson Labs; host or cells: living female BALB/c mice; plasma IL-6 after s.c. R848
In short: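 Female BALB/c mice (6–8 weeks) dosed orally with compound in 0.5% aqueous methyl-cellulose at 33, 100 or 300 mg/kg; at various times afterwards given 15 ug R848 s.c. to stimulate TLR7. Plasma IL-6 measured by ELISA to gauge potency and duration of action.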

SMILES	% Suppression vs. Vehicle (3 h, 33 mg/kg) [%]	% Suppression vs. Vehicle (3 h, 100 mg/kg) [%]	% Suppression vs. Vehicle (3 h, 300 mg/kg) [%]	% Suppression vs. Vehicle (6 h, 33 mg/kg) [%]	% Suppression vs. Vehicle (6 h, 100 mg/kg) [%]	% Suppression vs. Vehicle (6 h, 300 mg/kg) [%]	% Suppression vs. Vehicle (19 h, 33 mg/kg) [%]	% Suppression vs. Vehicle (19 h, 100 mg/kg) [%]	% Suppression vs. Vehicle (19 h, 300 mg/kg) [%]	% Suppression vs. Vehicle (24 h, 33 mg/kg) [%]	% Suppression vs. Vehicle (24 h, 100 mg/kg) [%]	% Suppression vs. Vehicle (24 h, 300 mg/kg) [%]	short-term in vivo suppression of the TLR7 pathway (plasma IL-6) (33, 100 or 300 mg/kg oral, 6, 13 or 24 hours, FIG. 1)	% Suppression vs. Vehicle (13 h, 100 mg/kg) [%]	% Suppression vs. Vehicle (19 h, 1.22 mg/kg) [%]	% Suppression vs. Vehicle (19 h, 3.67 mg/kg) [%]	% Suppression vs. Vehicle (19 h, 11 mg/kg) [%]	% Suppression vs. Vehicle (3 h after oral dose, 11 mg/kg) [%]	% Suppression vs. Vehicle (6 h, 11 mg/kg) [%]
C[C@@H]1CN(c2ccc(C#N)c3ncccc23)C[C@H](CN2CC[C@H](O)C2)O1 [ER-886820]	93	100	100	68	96	100	43	35	39										
CC(=O)NC1CCN(CC2CN(c3ccc(C#N)c4ncccc34)CC(C)O2)CC1 (stereo not shown) [ER-888288]	100	98		78	99	97	50	53		14	0	55							
C[C@@H]1CN(c2ccc(C#N)c3ncccc23)C[C@H](C(=O)NC2CCN(C)CC2)O1 [ER-899464, (2R,6R)-4-(8-cyanoquinolin-5-yl)-6-methyl-N-(1-methylpiperidin-4-yl)morpholine-2-carboxamide]					99								suppression of the TLR7 pathway	96					
C[C@@H]1CN(C[C@H]2CN(c3ccc(C#N)c4ncccc34)C[C@@H](C)O2)CCN1 [ER-887269]				95	100	98	9	58	95										
CC1CN(c2ccc(C#N)c3ncccc23)CC(CN2CCC(N(C)C)CC2)O1 (stereo not shown) [ER-887725]	99	99	99	99	99	99	90	91	99										
CC1CN(c2ccc(C#N)c3ncccc23)CC(CN2CCN(C)CC2C)O1 (stereo not shown) [ER-889556]	100	100		100	100		47	98							44	89	29		
C[C@@H]1CN(c2ccc(C#N)c3ncccc23)C[C@H](CNC2CCCC2)O1 [ER-887145]	97	99		91	99		0	96									0	67	32
C[C@@H]1CN(c2ccc(C#N)c3ncccc23)C[C@H](CN2CCN(C)CC2)O1 [ER-887723]				100	100	100	77	97	100										

— patent publication USRE47193E1, “Selectively substituted quinoline compounds” (EISAI R&D MANAGEMENT CO., LTD., priority 2013, dated 2019)
